Laboratory results as given in US5635537A, “8-substituted-2-aminotetralins” (Astra Aktiebolag, priority 1989, dated 1997).
Where a name gives a salt, the structure may show the parent alone.

biological target: T1, 5HT1A (Rattus norvegicus, UniProt P19327); assay: 5HT1A binding assay (receptor binding, 3H-8-OH-DPAT, rat cerebral cortex + hippocampus); conditions: 3H-8-OH-DPAT (0.25 to 8 nM), rat cerebral cortex + hippocampus homogenate, 37° C., 10 min, pH 7.5
T1 construct: Cerebral cortex + hippocampus from each rat was dissected and homogenized; from tissue; host or cells: rat cerebral cortex + hippocampus homogenate
T1 sequence (P19327 1-422): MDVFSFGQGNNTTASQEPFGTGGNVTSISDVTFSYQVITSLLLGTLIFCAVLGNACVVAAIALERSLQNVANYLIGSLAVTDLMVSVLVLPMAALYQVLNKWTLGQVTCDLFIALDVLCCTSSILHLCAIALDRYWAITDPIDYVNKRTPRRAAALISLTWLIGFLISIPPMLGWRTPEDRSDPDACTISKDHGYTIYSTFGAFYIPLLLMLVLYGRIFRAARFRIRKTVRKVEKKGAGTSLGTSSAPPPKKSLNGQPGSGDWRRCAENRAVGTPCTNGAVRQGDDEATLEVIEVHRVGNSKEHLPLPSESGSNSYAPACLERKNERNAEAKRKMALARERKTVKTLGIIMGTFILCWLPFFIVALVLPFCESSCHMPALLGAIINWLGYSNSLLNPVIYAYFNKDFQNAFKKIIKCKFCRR
Procedure: Another observation is that some of these compounds have a particularly good oral bioavailability. In order to evaluate the affinity for this subgroup of/the 5-HT-receptors, the effects on various receptors in rat brain were measured in vitro using receptor assays (Ki nM).
5HT1A binding assay. Cerebral cortex + hippocampus from each rat was dissected and homogenized in 15 ml ice-cold 50 mM Tris-HCl buffer 4.0 mM CaCl2 and 5.7 mM ascorbic acid, pH 7.5 with an Ultra-Turrax (Janke & Kunkel, Staufen, FRG) for ten s. After centrifugation for 12.5 min at 17,000 rpm (39,800×g in a Beckman centrifuge with a chilled JA-17 rotor (Beckman, Palo Alto, Calif., USA), the pellets were resuspended in the same buffer and homogenization and centrifugation repeated. To each pellet 5 ml ice-cold 0.32M sucrose were added and homogenized for 5 sec. These samples were kept frozen at -70° C. When used they were diluted with the buffer to 8 mg tissue/ml and homogenized for 10 sec.
The tissue homogenates were incubated for ten min at 37° C. and then supplied with 10 μM pargyline followed by reincubation for 10 min.
The binding assay followed that described by Peroutka, J. Neurochem. 47, 529-540, (1986). The incubation mixture (2 ml) contained ^3 H-8-OH-DPAT (0.25 to 8 nM), 5 mg/ml tissue homogenate in 50 mM Tris-HCl buffer containing 4.0 mM CaCl2 and 5.7 mM ascorbic acid, pH 7.5. Six different concentrations of ^3 H-8-OH-DPAT were analyzed. Binding experiments were started by the addition of tissue homogenate and followed by incubation at 37° C. for ten min. The incubation mixtures were filtered through Whatman GF/B glass filters with a Brandel Cell Harvester (Gaithersburg, Md., USA). The filters were washed twice with 5 ml ice-cold 50 mM Tria-HCl buffer, pH 7.5, and counted with 5 ml Ready-solv HP (Beckman) in a Beckman LS 3801 scintillation counter. Non-specific binding was measured by the addition of 10 μM 5-HT to the reaction mixture. The binding data was processed by non-linear least squares computer/analysis (Munson and Rodbard, Anal. Biochem. 107, 220-239, (1980).

In order of falling Ki:
1. CCCN(CCC)C1CCc2cccc(C(C)=O)c2C1 (single isomer, unassigned; (+)) [Example 6, (+)-8-Acetyl-2-(dipropylamino)tetralin hydrochloride]  1.7 nM
2. CCCN(CCC)C1CCc2cccc(-c3ccco3)c2C1 (racemic) [Example 11, (±)-8-(2-Furanyl)-2-(dipropylamino)tetralin oxalate]  1.5 nM
3. CCCN(CCC)C1CCc2cccc(C(C)=O)c2C1 (racemic) [Example 2, (±)-8-Acetyl-2-(dipropylamino)tetralin hydrochloride]  0.9 nM
